Data on four compounds can be found in ChEMBL document CHEMBL1126389, “Synthesis and anti-HIV activity of 3-deoxy-3-(N-hydroxyamino) analogues of nucleosides” (Bioorg Med Chem Lett, 1992).

Assay [1] deals with Human immunodeficiency virus 1. Kind of assay: Effective concentration against HIV-1 was determined. It counts as functional, organism-based.
In assay [2] the test system is Human immunodeficiency virus 1. The assay can be described thus: Inhibitory concentration against HIV-1 was determined. It counts as functional, organism-based.
The subject of another assay is oncovirus. Kind of assay: Compound was evaluated for the antiviral activity against model oncovirus SV 40; A - Marginal activity was found. It counts as functional.
Assay [3] has as its system Human immunodeficiency virus 1. The assay can be described thus: Compound was evaluated for the inhibitory activity against HIV-1; IA - Inactive. It is filed as functional, organism-based.

The structures appear in SMILES notation. Activity calls are given as the source filed them. No cut-off for these calls is given here.

`Cc1cn(C2CC3C(COCN3O)O2)c(=O)[nH]c1=O` (stereo unspecified) yielded a concentration giving a half-maximal response (EC50) in assay [1] of 2500 nM. In assay [2], the IC50 is above 210000 nM.

On to `Cc1cn(C2CC(N(C)O)C(CO)O2)c(=O)[nH]c1=O` (stereo unspecified), for which the Activity result in the assay with oncovirus is “A”.

`Cc1cn(C2CC(N(O)Cc3ccccc3)C(CO)O2)c(=O)[nH]c1=O` (stereo unspecified): in the assay with oncovirus, the Activity result is listed as “A”. In assay [3], the result was inactive.

As to `Cc1cn([C@H]2C[C@](C#N)(N(C)O)[C@@H](CO[Si](C)(C)C(C)(C)C)O2)c(=O)[nH]c1=O`, the Activity result in the assay on oncovirus is “A”.

A word on the EC50: it is the midpoint of the concentration-response curve. A low value points to greater potency. In general, IC50 refers to the concentration at which inhibition is half-maximal.
